Data taken from patent US6835382B2, “Ii peptide therapeutics to enhance antigen presentation” (University of Massachusetts, priority 1996, dated 2004).
Non-standard residues stand in square brackets, D forms with d. hArg = N=C(N)NCCCC[C@H](N)C(=O)O; Cit = NC(=O)NCCC[C@H](N)C(=O)O

Tested on: murine E^k MHC class II allele
Assay: simultaneous assay, E^k allele (CH27 APC, TPc9.1 T hybridoma, THMCC82-103 or PGCC81-104)
Assay type: cell-based
Details: for Times Baseline Response, Ek: Table 3, values reduced relative to E^d by a factor of 10
Summary of the method: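 Read-out is [3H]TdR incorporation into HT-2 indicator cells exposed to supernatant from a 24 h primary culture. That culture combined mitomycin C-treated APC (5×10^6 cells/mL, 0.025 mg/mL mitomycin C, 20 min, 37° C), peptide, effector compound and T hybridoma, all added at once.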

[1] = Table 15, AE peptide 16 μM, supernatant 1:4
[2] = Table 4, AE109 homolog 64 μM, supernatant 1:2
[3] = Table 1, AE peptide 64 μM (first value), 0.075 μM THMCC82-103, supernatant 1:2
[4] = Table 1, AE peptide 16 μM (second value), 0.075 μM THMCC82-103, supernatant 1:2
[5] = AE peptide 64 μM, supernatant 1:4
[6] = Table 11, AE peptide 64 μM, supernatant 1:4
[7] = Table 7, AE peptide 64 μM, supernatant 1:4, normalized by a factor of 5
[8] = Table 9, AE peptide 64 μM, supernatant 1:4, normalized by a factor of 5
[9] = Table 14, AE peptide 64 μM, supernatant 1:4
[10] = Table 13, AE peptide 1 μM (fourth value), supernatant 1:4
[11] = Table 13, AE peptide 4 μM (third value), supernatant 1:4
[12] = Table 13, AE peptide 16 μM (second value), supernatant 1:4
[13] = Table 13, AE peptide 64 μM (first value), supernatant 1:4
[14] = Table 5, AE peptide 64 μM, supernatant 1:4, normalized to E^d by a factor of 10
[15] = Table 16, AE peptide 4 μM, supernatant 1:8
[16] = Table 17, AE peptide 64 μM, supernatant 1:4
[17] = Table 18, AE peptide 64 μM, supernatant 1:4

Ac-L[Cit]MKNPK-NH2 [AE342]
Times Baseline Response, E^k [1]: 5.4

Ac-Y H MKLPKSAK-NH2 [AE133]
Times Baseline Response, E^k [2]: 0.8

Ac-Y Q MKLPKSAK-NH2 [AE138]
Times Baseline Response, E^k [2]: 0.8

Ac-LRMKLPKPPP-NH2 [AE167]
Times Baseline Response, E^k [3]: 3.4, n.d.

Ac-YRMKLPK-NH2 [AE113]
Times Baseline Response, E^k [4]: 6.7 | Times Baseline Response, E^k [3]: 15.5 | Times Baseline Response, Ek [5]: 24.9

Ac-ARNKNPF-NH2 [AE347]
Times Baseline Response, E^k [1]: 2.8

Ac-LRMKLPKPPK-NH2 [AE168]
Times Baseline Response, E^k [3]: 4.7, n.d.

Ac-L r MKLPK-NH2 [AE161]
Times Baseline Response, E^k [6]: 1.1

Ac-LRNKNPK-NH2 [AE349]
Times Baseline Response, E^k [1]: 6.1

Ac-LRMK E PK-NH2 (Ac-LRMKEPK-NH2) [AE231]
Times Baseline Response, E^k [7]: 1.2

Ac-Y Y MKLPKSAK-NH2 [AE140]
Times Baseline Response, E^k [2]: 0.9

YRMKLPKSAKPVSQMR [AE101]
Times Baseline Response, E^k [4]: 0.8 | Times Baseline Response, E^k [3]: 1.0

Ac-LRMKLP F-NH2 (Ac-LRMKLPF-NH2) [AE248]
Times Baseline Response, E^k [8]: 16.3 | Times Baseline Response, E^k [1]: 42.6

Ac-YAMKLPKSAK-NH2 [AE121]
Times Baseline Response, E^k [2]: 1.0 | Times Baseline Response, E^k (Table 10, AE peptide 64 μM, supernatant 1:2 (first value)): 21.6 | Times Baseline Response, E^k (Table 10, AE peptide 64 μM, supernatant 1:4 (second value)): 19.7

Ac-Y[Cit]MKLPKSAK-NH2 [AE131]
Times Baseline Response, E^k [2]: 0.8 | Times Baseline Response, E^k [1]: 4.1

Ac-LR (mL) KyPK-NH2 [AE304]
Times Baseline Response, E^k [9]: 13.4

Ac- (mL) RMKLPK-NH2 [AE174]
Times Baseline Response, E^k [10]: 1.6 | Times Baseline Response, E^k [11]: 3.1 | Times Baseline Response, E^k [12]: 9.8 | Times Baseline Response, E^k [13]: 35.1 | Times Baseline Response, E^k [9]: 34.3

Ac-LR HArg KLPK-NH2 [AE197]
Times Baseline Response, E^k [14]: 39.9 | Times Baseline Response, E^k [15]: 1.7

Ac-YRMKL hydrP KSAK-NH2 (Ac-YRMKL[hydrP]KSAK-NH2) [AE143]
Times Baseline Response, E^k (Table 8, AE peptide 4 μM (third), supernatant 1:4): 0.98 | Times Baseline Response, E^k (Table 8, AE peptide 16 μM (second), supernatant 1:4): 1.5, | Times Baseline Response, E^k (Table 8, AE peptide 64 μM (first), supernatant 1:4): 4.2,

Ac-LRLKYPk-NH2 [AE307]
Times Baseline Response, E^k [9]: 56.4

Ac-YRM-NH2 [AE118]
Times Baseline Response, E^k [4]: 3.0 | Times Baseline Response, E^k [3]: 5.6

Ac-LRMKLP k-NH2 [AE166]
Times Baseline Response, E^k [6]: 3.4 | Times Baseline Response, E^k [9]: 40.4

Ac-LR L KLPK-NH2 (Ac-LRLKLPK-NH2; not fully specified; printed as Ac-LR L KLPK-NH2) [AE206]
Times Baseline Response, E^k [14]: 33.9 | Times Baseline Response, E^k [9]: 53.5 | Times Baseline Response, E^k [1]: 35.3 | Times Baseline Response, E^k [15]: 1.3

Ac-LRMK Y PK-NH2 (Ac-LRMKYPK-NH2; not fully specified; printed as Ac-LRMK Y PK-NH2) [AE235]
Times Baseline Response, E^k [7]: 21.8 | Times Baseline Response, E^k [9]: 56.6 | Times Baseline Response, E^k [1]: 47.7 | Times Baseline Response, E^k [15]: 8.4 | Times Baseline Response, E^k [16]: 26.8 | Times Baseline Response, E^k [17]: 56.6

Ac-LRMK N PK-NH2 (Ac-LRMKNPK-NH2) [AE232]
Times Baseline Response, E^k [7]: 8.9 | Times Baseline Response, E^k [1]: 15.5

Ac-Y N MKLPKSAK-NH2 [AE137]
Times Baseline Response, E^k [2]: 0.7

Ac-LRMK M PK-NH2 (Ac-LRMKMPK-NH2) [AE236]
Times Baseline Response, E^k [7]: 16.9

Ac-LRMK K PK-NH2 (Ac-LRMKKPK-NH2) [AE229]
Times Baseline Response, E^k [7]: 16.2

Ac-LRMK HArg PK-NH2 (Ac-LRMK[hArg]PK-NH2; SMILES CSCC[C@H](NC(=O)[C@H](CCCNC(=N)N)NC(=O)[C@H](CC(C)C)NC(C)=O)C(=O)N[C@@H](CCCCN)C(=O)N[C@@H](CCCCNC(=N)N)C(=O)N1CCC[C@H]1C(=O)N[C@@H](CCCCN)C(N)=O) [AE227]
Times Baseline Response, E^k [7]: 20.5 | Times Baseline Response, E^k [1]: 45.6

Ac-LRMKLPK-NH2 [AE114]
Times Baseline Response, E^k [4]: 3.9 | Times Baseline Response, E^k [3]: 15.9 | Times Baseline Response, Ek [5]: 26.9 | Times Baseline Response, E^k [14]: 26.9 | Times Baseline Response, E^k (Table 6, AE peptide 64 μM, supernatant 1:4, reduced by a factor of 5): 10.7 | Times Baseline Response, E^k [7]: 10.7 | Times Baseline Response, E^k [8]: 13.2 | Times Baseline Response, E^k [6]: 5.2 | Times Baseline Response, E^k (Table 12, AE peptide 1 μM (fourth value), supernatant 1:4): 2.1 | Times Baseline Response, E^k (Table 12, AE peptide 4 μM (third value), supernatant 1:4): 4.9 | Times Baseline Response, E^k (Table 12, AE peptide 16 μM (second value), supernatant 1:4): 19.3 | Times Baseline Response, E^k (Table 12, AE peptide 64 μM (first value), supernatant 1:4): 51.5 | Times Baseline Response, E^k [10]: 2.1 | Times Baseline Response, E^k [11]: 4.9 | Times Baseline Response, E^k [12]: 19.3 | Times Baseline Response, E^k [13]: 51.5 | Times Baseline Response, E^k [9]: 40.3 | Times Baseline Response, E^k [1]: 18.2 | Times Baseline Response, E^k [15]: 1.2 | Times Baseline Response, E^k [16]: 2.8 | Times Baseline Response, E^k [17]: 40.3

Ac-Y E MKLPKSAK-NH2 [AE136]
Times Baseline Response, E^k [2]: 0.7

Ac-LRMKLP N-NH2 (Ac-LRMKLPN-NH2) [AE246]
Times Baseline Response, E^k [8]: 16.4 | Times Baseline Response, E^k [15]: 1.0

Ac-Y L MKLPKSAK-NH2 [AE142]
Times Baseline Response, E^k [2]: 1.0

Ac-LRMK F PK-NH2 (Ac-LRMKFPK-NH2) [AE234]
Times Baseline Response, E^k [7]: 16.6

Ac-LRNKNPF-NH2 [AE348]
Times Baseline Response, E^k [1]: 6.3
